Test results published in patent US6906098B2, “Mixed steroidal 1,2,4,5-tetraoxane compounds and methods of making and using thereof” (priority 2002, dated 2005).
In brackets after ≈: the same amount, converted by molar mass. Several values for one entry are separate records, joined by “and”; a condition that tells them apart may be missing. Identical values can stand only once. Like-named read-outs stand apart in the source and are kept apart here.

How the values were obtained:
[1] = tested on: Plasmodium falciparum chloroquine-susceptible strain D6; experiment: In vitro antimalarial drug susceptibility assay (radiolabeled hypoxanthine incorporation), strain D6; assay type: cell-based; conditions: growth inhibition, chloroquine-susceptible strain D6, 66 h incubation
[2] = tested on: Plasmodium falciparum chloroquine-resistant strain W2; experiment: microbe, parasite or virus in culture; assay type: cell-based; conditions: growth inhibition, chloroquine-resistant strain W2, 66 h incubation
[3] = tested on: D6 and W2 P. falciparum clones; assay type: cell-based, Plasmodium falciparum; conditions: IC50 (W2)/IC50 (D6) ratio
[4] = tested on: Mycobacterium tuberculosis H37Rv (ATCC 27294); experiment: Primary screen, Microplate Alamar Blue Assay (MABA), percent inhibition; assay type: cell-based; conditions: Mycobacterium tuberculosis, primary screening at 6.25 μg/ml
Summary of the method: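 Single-concentration screen at 6.25 μg/ml (or molar equivalent of the heaviest congener in a series) against H37Rv grown in BACTEC 12B medium. Growth read by Microplate Alamar Blue Assay, reported as percent inhibition.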

M. tuberculosis H37Rv = experiment: Minimum inhibitory concentration (MIC) in the MABA; assay type: cell-based, Mycobacterium tuberculosis; conditions: Mycobacterium tuberculosis, H37RV, read-out: MIC
Summary of the method: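 Run under the NIAID TAACF screening program against M. tuberculosis by fluorescence read-out. MIC taken as the lowest concentration giving 90% reduction in fluorescence relative to controls.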

[5] = tested on: IGROV1 ovarian cancer cell line; experiment: NCI in vitro antiproliferative screen (SRB), IGROV1; assay type: cell-based, human; conditions: IGROV1, after 48 h
Description: (§1) In preliminary tests, four compounds (1B14a, 1C44, 1C45, and 1C46) were chosen by NIH-NCI for in vitro screening. See Drug discovery and development program, National Cancer Institute, Bethesda, (NCI), http://dtp.nci.nih.gov. All tetraoxanes were evaluated in the 3-cell line (lung—NCI-H460, breast—MCF7, CNS-SF-268) one dose primary anticancer assay: growth percentage after 48 hours, at 100 μM concentration of tested compound. Two compounds were eliminated at this step (1B14a and 1C46), while the acid 1C44 and primary amide 1C45 were evaluated against the full panel of 60 human tumor cell lines starting with 10^−4 M concentration of investigated compounds.
(§2) The activity of numerous compounds of the present invention against various cancer cell lines was submitted to the Developmental Therapeutics Program (DTP) at the National Cancer Institute (NCI) of the National Institutes of Health (NIH) for screening.
(§3) The DTP Human Tumor Cell Line Screen utilizes 60 different human tumor cell lines, representing leukemia, melanoma and cancers of the lung, colon, brain, ovary, breast, prostate, and kidney according to conventional methods known in the art. See e.g. Alley, M. C., et al. (1988) Cancer Research 48:589-601; Grever, M. R., et al. (1992) Seminars in Oncology 19(6):622-638; and Boyd, M. R., and Paull, K. D. (1995) Drug Development Research 34:91-109, which are herein incorporated by reference.
(§4) Generally, the human tumor cell lines of the cancer screening panel are grown in RPMI 1640 medium containing 5% fetal bovine serum and 2 mM L-glutamine. For a typical screening experiment, cells are inoculated into 96 well microtiter plates in 100 μl at plating densities ranging from 5,000 to 40,000 cells/well depending on the doubling time of individual cell lines. After cell inoculation, the microtiter plates are incubated at 37° C., 5% CO2, 95% air and 100% relative humidity for 24 hours prior to addition of the compounds to be tested.
(§5) After 24 hours, two plates of each cell line are fixed in situ with TCA, to represent a measurement of the cell population for each cell line at the time of drug addition (Tz). Experimental drugs are solubilized in dimethyl sulfoxide at 400-fold the desired final maximum test concentration and stored frozen prior to use. At the time of drug addition, an aliquot of frozen concentrate is thawed and diluted to twice the desired final maximum test concentration with complete medium containing 50 μg/ml gentamicin. Additional four, 10-fold or ½ log serial dilutions are made to provide a total of five drug concentrations plus control. Aliquots of 100 μl of these different drug dilutions are added to the appropriate microtiter wells already containing 100 μl of medium, resulting in the required final drug concentrations.
(§6) Following drug addition, the plates are incubated for an additional 48 hours at 37° C., 5% CO2, 95% air, and 100% relative humidity. For adherent cells, the assay is terminated by the addition of cold TCA. Cells are fixed in situ by the gentle addition of 50 μl of cold 50% (w/v) TCA (final concentration, 10% TCA) and incubated for 60 minutes at 4° C. The supernatant is discarded, and the plates are washed five times with tap water and air dried. Sulforhodamine B (SRB) solution (100 μl) at 0.4% (w/v) in 1% acetic acid is added to each well, and plates are incubated for 10 minutes at room temperature. […]

[6] = tested on: TK-10 renal cancer cell line; experiment: NCI in vitro antiproliferative screen (SRB), TK-10; assay type: cell-based, human; conditions: TK-10, after 48 h; for GI50 / CC50: Homo sapiens; for CC50: read-out: LC50 (the source's name)
Description: as §1, §2, §3, §4, §5, §6

[7] = tested on: UO-31 renal cancer cell line; experiment: NCI in vitro antiproliferative screen (SRB), UO-31; assay type: cell-based, human; conditions: UO-31, after 48 h; for GI50 / CC50: Homo sapiens; for CC50: read-out: LC50 (the source's name)
Description: as §1, §2, §3, §4, §5, §6

SR leukemia cell line = experiment: NCI in vitro antiproliferative screen (SRB), SR; assay type: cell-based, human; conditions: after 48 h; for GI50 / CC50: Homo sapiens; for CC50: read-out: LC50 (the source's name)
Description: as §1, §2, §3, §4, §5, §6

[8] = tested on: KM-12 colon cancer cell line; experiment: NCI in vitro antiproliferative screen (SRB), KM-12; assay type: cell-based, human; conditions: KM-12, after 48 h; for GI50 / CC50: Homo sapiens, KM12; for CC50: read-out: LC50 (the source's name)
Description: as §1, §2, §3, §4, §5, §6

[9] = tested on: MALME-3M melanoma cancer cell line; experiment: NCI in vitro antiproliferative screen (SRB), MALME-3M; assay type: cell-based, human; conditions: for GI50 / CC50: Homo sapiens; for CC50: read-out: LC50 (the source's name)
Description: as §1, §2, §3, §4, §5, §6

VERO cells [10] = conditions: ratio of IC50 in VERO cells to MIC (M. tuberculosis H37Rv)
VERO cells [11] = experiment: cells; conditions: Chlorocebus sabaeus, Table 5
in vitro = conditions: African green monkey, Cytotoxcity (IC50), Table 3; VERO cell line, 72 hours exposure
[12] = Table 3, H37Rv, read-out: Inhibition (%)
[13] = Table 5, Alamar assay, read-out: % Inhib
[14] = Table 5, Alamar assay, M. tuberculosis H37Rv
[15] = MALME-3M, after 48 h, read-out: GI50

| SMILES | Strain D6 IC50 [1] | Strain W2 IC50 [2] | Resistance Index [3] | inhibition at 6.25 µg/mL [4, 12] | GI50 ([5]; Homo sapiens, IGROV-1) | TGI [5] | GI50 [6] | CC50 [6] | TGI [6] | GI50 [7] | CC50 [7] | TGI [7] | GI50 (SR leukemia cell line) | CC50 (SR leukemia cell line) | GI50 [8] | CC50 [8] | TGI [8] | GI50 [9, 15] | CC50 ([9]; MALME-3M, after 48 h) | TGI ([9]; MALME-3M, after 48 h) | other results |
| --- | --- | --- | --- | --- | --- | --- | --- | --- | --- | --- | --- | --- | --- | --- | --- | --- | --- | --- | --- | --- | --- |
| CC(=O)O[C@H]1CC2C(C3CC[C@H](C(C)CCC(=O)O)[C@]31C)[C@H](OC(C)=O)C[C@@H]1CC3(CC[C@]21C)OOC1(CCC(c2ccccc2)CC1)OO3 (single isomer, unassigned) [Compound 1C44, 7α,12α-Diacetoxy-5β-cholan-24-oic acid-3-spiro-6′-(1′,2′,4′,5′-tetraoxacyclohexane)-3′-spiro-1″-((4″R or S)-phenyl)cyclohexane] | 0.00619 µg/mL | 0.00609 µg/mL | 0.98 | 94% | 0.26 µM | 0.82 µM | 1.99 µM | 27 µM | 5.94 µM | 1.83 µM | 6.73 µM | 3.51 µM | 1.83 µM | 100 µM | 1.96 µM | 40.1 µM | 5.36 µM | 2.27 µM | 47 µM | 9.14 µM | inhibition at 6.25 µg/mL [4, 13]: 94%; MIC (M. tuberculosis H37Rv; Table 3, H37Rv): 6.25 µg/mL (≈ 8.97 µM); MIC (M. tuberculosis H37Rv; [14]): 6.25 µg/mL (≈ 8.97 µM); LC50 (concentration killing 50% of cells) ([5]; Homo sapiens, IGROV-1): 3.76 µM; TGI (SR leukemia cell line): 5.92 µM; SI (selectivity index) (VERO cells [10]): 0.17; IC50 (VERO cells [11]): 1.07 µg/mL (≈ 1.54 µM) |
| CNC(=O)CCC(C)[C@H]1CCC2C3C(C[C@H](OC(C)=O)[C@@]21C)[C@@]1(C)CCC2(C[C@H]1C[C@H]3OC(C)=O)OOC1(CCC(C)CC1)OO2 (stereo partly drawn) [18/1C27, N-Methyl-7α,12α-diacetoxy-5β-cholan-24-amide-3-spiro-6′-(1′,2′,4′,5′-tetraoxacyclohexane)-3′-spiro-1″-((4″R)-methyl)cyclohexane] | 0.00386 µg/mL | 0.00234 µg/mL | 0.61 | 98% |  |  |  |  |  |  |  |  |  |  |  |  |  |  |  |  | inhibition at 6.25 µg/mL [4, 13]: 98%; MIC (M. tuberculosis H37Rv; Table 3, H37Rv): 6.25 µg/mL and 9.65 µM; MIC (M. tuberculosis H37Rv; [14]): 6.25 µg/mL (≈ 9.65 µM); SI (selectivity index) (VERO cells [10]): 0.91; IC50 (in vitro): 5.69 µg/mL and 8.78 µM |
| CC(=O)O[C@H]1C(=O)[C@@]2(C)[C@H]([C@H](OC(=O)c3ccccc3)[C@]3(O)C[C@H](OC(=O)[C@H](O)[C@@H](NC(=O)c4ccccc4)c4ccccc4)C(C)=C1C3(C)C)[C@]1(OC(C)=O)CO[C@@H]1C[C@@H]2O [Paclitaxel, reference compound] |  |  |  |  | 0.032 µM | 79.4 µM | 0.25 µM | 79.4 µM | 50.1 µM | 1.58 µM | 100 µM | 39.8 µM | 0.079 µM | 63.1 µM | 0.0079 µM | 100 µM | 79.4 µM | 2.51 µM | 79.4 µM | 50.1 µM | TGI (SR leukemia cell line): 63.1 µM |
| C[C@@H]1CC[C@H]2[C@@H](C)C(=O)O[C@@H]3O[C@@]4(C)CC[C@@H]1[C@]32OO4 [Artemisinin, reference compound] |  |  |  |  | 79.4 µM | 100 µM | 100 µM | 100 µM | 100 µM | 79.4 µM | 100 µM | 100 µM | 100 µM | 100 µM | 100 µM | 100 µM | 100 µM | 100 µM | 100 µM | 100 µM | TGI (SR leukemia cell line): 100 µM |
| CC(=O)O[C@H]1CC2C(C3CC[C@H](C(C)CCC(N)=O)[C@]31C)[C@H](OC(C)=O)C[C@@H]1CC3(CC[C@]21C)OOC1(CCC(c2ccccc2)CC1)OO3 (single isomer, unassigned) [Compound 1C45, 7α,12α-Diacetoxy-5β-cholan-24-amide-3-spiro-6′-(1′,2′,4′,5′-tetraoxacyclohexane)-3′-spiro-1″-((4″R or S)-phenyl)cyclohexane] | 0.00719 µg/mL | 0.00736 µg/mL | 1.02 | 93% | 0.295 µM | 1.11 µM | 2.7 µM | 8.07 µM | 4.66 µM | 0.36 µM | 4.57 µM | 1.35 µM | 0.29 µM | 100 µM | 1.19 µM | 7.15 µM | 2.92 µM | 0.02 µM | 37.3 µM | 3.99 µM | inhibition at 6.25 µg/mL [4, 13]: 93%; MIC (M. tuberculosis H37Rv; Table 3, H37Rv): 6.25 µg/mL (≈ 8.98 µM); MIC (M. tuberculosis H37Rv; [14]): 6.25 µg/mL (≈ 8.98 µM); GI50 ([9]; Malme-3M): 0.02 µM |
